Measurements taken from BindingDB's records for doi:10.1016/j.ejmech.2008.03.019 (Institute of Pharmacology of The Polish Academy of Sciences, 2008).

Biological target: T1, 5-hydroxytryptamine receptor 1A (Rattus norvegicus, UniProt P19327)
T1 sequence (P19327 whole entry): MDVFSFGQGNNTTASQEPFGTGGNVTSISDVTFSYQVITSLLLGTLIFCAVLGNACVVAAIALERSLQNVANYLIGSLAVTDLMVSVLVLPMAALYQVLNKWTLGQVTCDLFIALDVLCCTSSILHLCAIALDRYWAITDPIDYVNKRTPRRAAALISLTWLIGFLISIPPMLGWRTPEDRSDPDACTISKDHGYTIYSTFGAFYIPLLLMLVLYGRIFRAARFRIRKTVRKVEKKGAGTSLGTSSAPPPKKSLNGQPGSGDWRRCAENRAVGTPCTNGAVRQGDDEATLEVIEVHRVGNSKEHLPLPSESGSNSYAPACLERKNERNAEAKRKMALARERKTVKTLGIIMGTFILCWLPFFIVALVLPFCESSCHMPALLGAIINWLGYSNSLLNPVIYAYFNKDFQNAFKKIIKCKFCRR
Test: Displacement of [3H]8-OH-DPAT from 5HT1A receptor in rat hippocampal membranes

Ki: 0.331 µM
SMILES: CC1CC2(C)CC(=O)C1C1C(=O)N(OCCCN3CCN(c4ccccc4F)CC3)C(=O)C12 (stereo unspecified) [4-{3-[4-(2-Fluorophenyl)piperazin-1-yl]propoxy}-1,11-dimethyl-4-azatricyclo[5.2.2.0(2,6)]undecane-3,5,8-trione]
